Active and inactive are the calls of the source. The rule behind the calls is not given here.
Legend:
Human alphaherpesvirus 1 [1] = assay: Antiviral activity against HSV1 infected in african green monkey CV1 cells at 0.1 ug/disk by filter disk method; type: functional, organism-based; details: CV-1
[2] = Cytotoxicity against african green monkey CV1 cells at 10 ug/disk by neutral red staining; type: cell-based; details: chlorocebus aethiops, cv-1
[3] = Cytotoxicity against african green monkey CV1 cells at 0.5 ug/disk by neutral red staining; type: cell-based; details: chlorocebus aethiops, cv-1
[4] = Cytotoxicity against african green monkey CV1 cells at 0.05 ug/disk by neutral red staining; type: cell-based; details: chlorocebus aethiops, cv-1
Human alphaherpesvirus 1 [5] = assay: Antiviral activity against HSV1 infected in african green monkey CV1 cells at 0.25 ug/disk by filter disk method; type: functional, organism-based; details: CV-1
[6] = Cytotoxicity against african green monkey CV1 cells at 2.5 ug/disk by neutral red staining; type: cell-based; details: chlorocebus aethiops, cv-1
[7] = Cytotoxicity against african green monkey CV1 cells at 0.15 ug/disk by neutral red staining; type: cell-based; details: chlorocebus aethiops, cv-1
Human alphaherpesvirus 1 [8] = assay: Antiviral activity against HSV1 infected in african green monkey CV1 cells at 0.15 ug/disk by filter disk method; type: functional, organism-based; details: CV-1
Human alphaherpesvirus 1 [9] = assay: Antiviral activity against HSV1 infected in african green monkey CV1 cells at 0.010 ug/disk by filter disk method; type: functional, organism-based; details: CV-1
[10] = Cytotoxicity against african green monkey CV1 cells at 1 ug/disk by neutral red staining; type: cell-based; details: chlorocebus aethiops, cv-1
[11] = Cytotoxicity against african green monkey CV1 cells at 0.010 ug/disk by neutral red staining; type: cell-based; details: chlorocebus aethiops, cv-1
Human alphaherpesvirus 1 [12] = assay: Antiviral activity against HSV1 infected in african green monkey CV1 cells at 0.05 ug/disk by filter disk method; type: functional, organism-based; details: CV-1
[13] = Cytotoxicity against african green monkey CV1 cells at 0.025 ug/disk by neutral red staining; type: cell-based; details: chlorocebus aethiops, cv-1
[14] = Cytotoxicity against african green monkey CV1 cells at 0.015 ug/disk by neutral red staining; type: cell-based; details: chlorocebus aethiops, cv-1
Human alphaherpesvirus 1 [15] = assay: Antiviral activity against HSV1 infected in african green monkey CV1 cells at 10 ug/disk by filter disk method; type: functional, organism-based; details: CV-1
Human alphaherpesvirus 1 [16] = assay: Antiviral activity against HSV1 infected in african green monkey CV1 cells at 2.5 ug/disk by filter disk method; type: functional, organism-based; details: CV-1
Human alphaherpesvirus 1 [17] = assay: Antiviral activity against HSV1 infected in african green monkey CV1 cells at 1 ug/disk by filter disk method; type: functional, organism-based; details: CV-1
[18] = Cytotoxicity against african green monkey CV1 cells at 0.1 ug/disk by neutral red staining; type: cell-based; details: chlorocebus aethiops, cv-1
Human alphaherpesvirus 1 [19] = assay: Antiviral activity against HSV1 infected in african green monkey CV1 cells at 0.5 ug/disk by filter disk method; type: functional, organism-based; details: CV-1
Human alphaherpesvirus 1 [20] = assay: Antiviral activity against HSV1 infected in african green monkey CV1 cells at 0.005 ug/disk by filter disk method; type: functional, organism-based; details: CV-1
[21] = Cytotoxicity against african green monkey CV1 cells at 0.005 ug/disk by neutral red staining; type: cell-based; details: chlorocebus aethiops, cv-1
Human alphaherpesvirus 1 [22] = assay: Antiviral activity against HSV1 infected in african green monkey CV1 cells at 5 ug/disk by filter disk method; type: functional, organism-based; details: CV-1
[23] = Cytotoxicity against african green monkey CV1 cells at 0.25 ug/disk by neutral red staining; type: cell-based; details: chlorocebus aethiops, cv-1
[24] = Cytotoxicity against african green monkey CV1 cells at 5 ug/disk by neutral red staining; type: cell-based; details: chlorocebus aethiops, cv-1

CC1=C2C(=C[C@@](C)(CO)[C@@H]2O)C(=O)[C@](C)(O)C12CC2 [ILLUDIN]
Activity (Human alphaherpesvirus 1 [1]): Active | Activity [2]: Toxic | Activity [3]: Toxic | Activity [4]: Non-toxic | Activity (Human alphaherpesvirus 1 [5]): inactive | Activity [6]: Toxic | Activity [7]: Non-toxic | Activity (Human alphaherpesvirus 1 [8]): Active | Activity (Human alphaherpesvirus 1 [9]): inactive | Activity [10]: Toxic | Activity [11]: Non-toxic | Activity (Human alphaherpesvirus 1 [12]): Active | Activity [13]: Non-toxic | Activity [14]: Non-toxic | Activity (Human alphaherpesvirus 1 [15]): inactive | Activity (Human alphaherpesvirus 1 [16]): inactive | Activity (Human alphaherpesvirus 1 [17]): inactive | Activity [18]: Non-toxic | Activity (Human alphaherpesvirus 1 [19]): inactive | Activity (Human alphaherpesvirus 1 [20]): inactive | Activity [21]: Non-toxic | Activity (Human alphaherpesvirus 1 [22]): inactive | Activity [23]: Toxic | Activity [24]: Toxic
